{
  "source": "patent US6358885B1",
  "about": "“Substituted phenylheterocyclic herbicides” (Mississippi State University, priority 1992, dated 2002)",
  "key": {"[1]": {"tested_on": "ryegrass", "experiment": "Test C preemergence/postemergence greenhouse plant response rating 0 to 100", "assay_type": "in vivo, Lolium multiflorum", "details": "for Plant response rating Ryegrass: 125 g/ha, 0 to 100 scale", "summary_of_the_method": "(§1)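 Compounds in non-phytotoxic solvent went onto sandy loam before emergence (seeded one day earlier) or onto plants at the one-to-four leaf stage. Duck salad was treated via flood water (~2.5 cm, maintained) over silt loam.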"}, "[2]": {"tested_on": "sorghum", "experiment": "Test C preemergence/postemergence greenhouse plant response rating 0 to 100", "assay_type": "in vivo, Sorghum bicolor", "details": "for Plant response rating, Sorghum: 125 g/ha, 0 to 100 scale", "summary_of_the_method": "as §1"}, "[3]": {"tested_on": "wild oat", "experiment": "Test C preemergence/postemergence greenhouse plant response rating 0 to 100", "assay_type": "in vivo, Avena fatua", "details": "for Plant response rating, Wild oat: 125 g/ha, 0 to 100 scale", "summary_of_the_method": "as §1"}, "[4]": {"tested_on": "barley", "experiment": "Test B preemergence/postemergence greenhouse plant response rating 0 to 10", "assay_type": "in vivo, Hordeum vulgare", "details": "for Plant response rating, Barley: 0 to 10 scale", "summary_of_the_method": "(§2)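 Both application timings were run together: seeds got compound preemergence, and established seedlings (two to eighteen cm) got it postemergence. Non-phytotoxic solvent carried the chemical. Ratings are visual, versus controls, at twelve to sixteen days.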"}, "[5]": {"tested_on": "sorghum", "experiment": "Test B preemergence/postemergence greenhouse plant response rating 0 to 10", "assay_type": "in vivo, Sorghum bicolor", "details": "for Plant response rating, Sorghum: 0 to 10 scale", "summary_of_the_method": "as §2"}, "[6]": {"tested_on": "lambsquarters", "experiment": "Test B preemergence/postemergence greenhouse plant response rating 0 to 10", "assay_type": "in vivo, Chenopodium album", "details": "for Plant response rating, Lambsquarter: 0 to 10 scale", "summary_of_the_method": "as §2"}, "[7]": {"tested_on": "wheat", "experiment": "Test B preemergence/postemergence greenhouse plant response rating 0 to 10", "assay_type": "in vivo, Triticum aestivum", "details": "for Plant response rating, Wheat: 0 to 10 scale", "summary_of_the_method": "as §2"}, "[8]": {"tested_on": "blackgrass", "experiment": "Test B preemergence/postemergence greenhouse plant response rating 0 to 10", "assay_type": "in vivo, Alopecurus myosuroides", "details": "for Plant response rating, Blackgrass: 0 to 10 scale", "summary_of_the_method": "as §2"}, "[9]": {"tested_on": "wild buckwheat", "experiment": "Test C preemergence/postemergence greenhouse plant response rating 0 to 100", "assay_type": "in vivo, Polygonum convolvulus", "details": "for Plant response rating, Wild buckwheat: 125 g/ha, 0 to 100 scale", "summary_of_the_method": "as §1"}},
  "data": [
    {"molecule": "COCOc1cc(-c2nn3c(c2Cl)CCCC3)c(F)cc1Cl", "note": "[Compound 58]", "values": [
      {"measurement": "Plant response rating Ryegrass", "setting": "[1]; POSTEMERGENCE", "value": 85},
      {"measurement": "Plant response rating (0 to 100), Ryegrass", "setting": "[1]; POSTEMERGENCE, Rate 2 g/ha", "value": 10},
      {"measurement": "Plant response rating Ryegrass", "setting": "[1]; PREEMERGENCE", "value": 100},
      {"measurement": "Plant response rating (0 to 100), Ryegrass", "setting": "[1]; PREEMERGENCE, Rate 2 g/ha", "value": 0},
      {"measurement": "Plant response rating (0 to 100), Ryegrass", "setting": "[1]; Rate 8 g/ha, POSTEMERGENCE", "value": 30},
      {"measurement": "Plant response rating (0 to 100), Ryegrass", "setting": "[1]; Rate 8 g/ha, PREEMERGENCE", "value": 0},
      {"measurement": "Plant response rating (0 to 100), Ryegrass", "setting": "[1]; Rate 31 g/ha, POSTEMERGENCE", "value": 60},
      {"measurement": "Plant response rating (0 to 100), Ryegrass", "setting": "[1]; Rate 31 g/ha, PREEMERGENCE", "value": 50},
      {"measurement": "Plant response rating, Sorghum", "setting": "[2]; POSTEMERGENCE", "value": 85},
      {"measurement": "Plant response rating (0 to 100), Sorghum", "setting": "[2]; POSTEMERGENCE, Rate 2 g/ha", "value": 30},
      {"measurement": "Plant response rating, Sorghum", "setting": "[2]; PREEMERGENCE", "value": 20},
      {"measurement": "Plant response rating (0 to 100), Sorghum", "setting": "[2]; PREEMERGENCE, Rate 2 g/ha", "value": 0},
      {"measurement": "Plant response rating (0 to 100), Sorghum", "setting": "[2]; Rate 8 g/ha, POSTEMERGENCE", "value": 50},
      {"measurement": "Plant response rating (0 to 100), Sorghum", "setting": "[2]; Rate 8 g/ha, PREEMERGENCE", "value": 0},
      {"measurement": "Plant response rating (0 to 100), Sorghum", "setting": "[2]; Rate 31 g/ha, POSTEMERGENCE", "value": 50},
      {"measurement": "Plant response rating (0 to 100), Sorghum", "setting": "[2]; Rate 31 g/ha, PREEMERGENCE", "value": 10},
      {"measurement": "Plant response rating, Wild oat", "setting": "[3]; POSTEMERGENCE", "value": 75},
      {"measurement": "Plant response rating (0 to 100), Wild oat", "setting": "[3]; POSTEMERGENCE, Rate 2 g/ha", "value": 20},
      {"measurement": "Plant response rating, Wild oat", "setting": "[3]; PREEMERGENCE", "value": 75},
      {"measurement": "Plant response rating (0 to 100), Wild oat", "setting": "[3]; PREEMERGENCE, Rate 2 g/ha", "value": 0},
      {"measurement": "Plant response rating (0 to 100), Wild oat", "setting": "[3]; Rate 8 g/ha, POSTEMERGENCE", "value": 30},
      {"measurement": "Plant response rating (0 to 100), Wild oat", "setting": "[3]; Rate 8 g/ha, PREEMERGENCE", "value": 0},
      {"measurement": "Plant response rating (0 to 100), Wild oat", "setting": "[3]; Rate 31 g/ha, POSTEMERGENCE", "value": 50},
      {"measurement": "Plant response rating (0 to 100), Wild oat", "setting": "[3]; Rate 31 g/ha, PREEMERGENCE", "value": 10},
      {"measurement": "Plant response rating, Barley", "setting": "[4]; POSTEMERGENCE, Rate 50 g/ha", "value": 6},
      {"measurement": "Plant response rating, Barley", "setting": "[4]; PREEMERGENCE, Rate 50 g/ha", "value": 1},
      {"measurement": "Plant response rating (0 to 10 scale), Barley", "setting": "[4]; PREEMERGENCE, Rate 200 g/ha", "value": 4},
      {"measurement": "Plant response rating, Barley", "setting": "[4]; Rate 200 g/ha, POSTEMERGENCE", "value": 8},
      {"measurement": "Plant response rating, Sorghum", "setting": "[5]; POSTEMERGENCE, Rate 50 g/ha", "value": 4},
      {"measurement": "Plant response rating, Sorghum", "setting": "[5]; PREEMERGENCE, Rate 50 g/ha", "value": 2},
      {"measurement": "Plant response rating (0 to 10 scale), Sorghum", "setting": "[5]; PREEMERGENCE, Rate 200 g/ha", "value": 3},
      {"measurement": "Plant response rating, Sorghum", "setting": "[5]; Rate 200 g/ha, POSTEMERGENCE", "value": 6},
      {"measurement": "Plant response rating, Lambsquarter", "setting": "[6]; POSTEMERGENCE, Rate 50 g/ha", "value": 10},
      {"measurement": "Plant response rating, Lambsquarter", "setting": "[6]; PREEMERGENCE, Rate 50 g/ha", "value": 10},
      {"measurement": "Plant response rating (0 to 10 scale), Lambsquarter", "setting": "[6]; PREEMERGENCE, Rate 200 g/ha", "value": 10},
      {"measurement": "Plant response rating, Lambsquarter", "setting": "[6]; Rate 200 g/ha, POSTEMERGENCE", "value": 10},
      {"measurement": "Plant response rating, Wheat", "setting": "[7]; POSTEMERGENCE, Rate 50 g/ha", "value": 7},
      {"measurement": "Plant response rating, Wheat", "setting": "[7]; PREEMERGENCE, Rate 50 g/ha", "value": 2},
      {"measurement": "Plant response rating (0 to 10 scale), Wheat", "setting": "[7]; PREEMERGENCE, Rate 200 g/ha", "value": 7},
      {"measurement": "Plant response rating, Wheat", "setting": "[7]; Rate 200 g/ha, POSTEMERGENCE", "value": 8},
      {"measurement": "Plant response rating, Blackgrass", "setting": "[8]; POSTEMERGENCE, Rate 50 g/ha", "value": 6},
      {"measurement": "Plant response rating, Blackgrass", "setting": "[8]; PREEMERGENCE, Rate 50 g/ha", "value": 4},
      {"measurement": "Plant response rating (0 to 10 scale), Blackgrass", "setting": "[8]; PREEMERGENCE, Rate 200 g/ha", "value": 7},
      {"measurement": "Plant response rating, Blackgrass", "setting": "[8]; Rate 200 g/ha, POSTEMERGENCE", "value": 7},
      {"measurement": "Plant response rating, Wild buckwheat", "setting": "[9]; POSTEMERGENCE", "value": 100},
      {"measurement": "Plant response rating (0 to 100), Wild buckwheat", "setting": "[9]; POSTEMERGENCE, Rate 2 g/ha", "value": 100},
      {"measurement": "Plant response rating, Wild buckwheat", "setting": "[9]; PREEMERGENCE", "value": 100},
      {"measurement": "Plant response rating (0 to 100), Wild buckwheat", "setting": "[9]; PREEMERGENCE, Rate 2 g/ha", "value": 0},
      {"measurement": "Plant response rating (0 to 100), Wild buckwheat", "setting": "[9]; Rate 8 g/ha, POSTEMERGENCE", "value": 100},
      {"measurement": "Plant response rating (0 to 100), Wild buckwheat", "setting": "[9]; Rate 8 g/ha, PREEMERGENCE", "value": 40},
      {"measurement": "Plant response rating (0 to 100), Wild buckwheat", "setting": "[9]; Rate 31 g/ha, POSTEMERGENCE", "value": 100},
      {"measurement": "Plant response rating (0 to 100), Wild buckwheat", "setting": "[9]; Rate 31 g/ha, PREEMERGENCE", "value": 100}
    ]}
  ]
}
